By IC50 is commonly meant the concentration needed to halve the response being measured. Lower therefore signals inhibition by little substance.

Data on three compounds can be found in patent US20020081572A1, “Three dimensional structure of paramyxovirus hemagglutinin neuraminidases and use thereof” (priority 2000, published 2002).

One assay concerns the target Influenza Neuraminidase. Description: Influenza neuraminidase fluorimetric assay. The class given is biochemical, influenza virus. To be noted: 4-methylumbelliferyl-alpha-D-acetylneuraminic acid substrate 75 uM, pH 6.5, 37 C.
Assay [1] concerns the target Sendai Virus Hemagglutinin-Neuraminidase (Sendai virus, UniProt P03425). Description: Paramyxovirus hemagglutinin-neuraminidase fluorimetric assay. Format: biochemical.

Molecules are shown by their SMILES.

Sequence of Sendai Virus Hemagglutinin-Neuraminidase (P03425 whole entry): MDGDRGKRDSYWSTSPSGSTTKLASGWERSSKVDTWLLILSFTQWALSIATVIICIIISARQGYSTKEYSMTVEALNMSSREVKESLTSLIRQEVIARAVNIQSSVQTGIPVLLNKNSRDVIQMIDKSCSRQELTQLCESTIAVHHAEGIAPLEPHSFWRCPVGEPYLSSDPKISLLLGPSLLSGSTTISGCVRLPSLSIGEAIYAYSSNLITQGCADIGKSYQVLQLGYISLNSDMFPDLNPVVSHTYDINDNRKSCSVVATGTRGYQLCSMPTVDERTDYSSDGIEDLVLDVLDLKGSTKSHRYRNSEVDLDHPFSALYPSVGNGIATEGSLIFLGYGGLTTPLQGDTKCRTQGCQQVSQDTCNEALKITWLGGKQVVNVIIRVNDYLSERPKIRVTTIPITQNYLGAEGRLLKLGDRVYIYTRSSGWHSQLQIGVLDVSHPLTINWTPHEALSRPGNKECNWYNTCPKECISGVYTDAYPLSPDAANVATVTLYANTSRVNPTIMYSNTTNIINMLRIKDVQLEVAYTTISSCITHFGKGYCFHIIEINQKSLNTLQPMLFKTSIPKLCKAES

As for `CCC(CC)C(NC(C)=O)C1CC(C(=O)O)CC1NC(=N)N` (single isomer, unassigned; (-)) [Compound 3, (-)t-3-[(1-Acetylamino-2-ethyl)butyl]-c-4-(aminoiminomethyl)aminocyclopentan-r-1-carboxylic acid], the IC50 at Influenza Neuraminidase is less than 50 nM; in assay [1] it was greater than 300 µM.
For `CCN(CC)C(=O)C(NC(C)=O)C1CC(C(=O)O)CC1NC(=N)N` (stereo not drawn) [Compound 1, alpha-3-[(Acetylamino)(diethylaminocarbonyl)methyl]-beta-4-[(aminoiminomethyl)amino]cyclopentane-1-carboxylic acid] the same measures were less than 50 nM and greater than 300 µM.
For `CCC(CC)C(NC(C)=O)C1C(NC(=N)N)CC(C(=O)O)C1O` (single isomer, unassigned; (-)) [Compound 2, (-)-t-e-[(1-Acetylamino)(2-ethyl)butyl]-c-4-(aminoiminomethyl)amino-t-2-hydroxycyclopentan-r-1-carboxylic acid] the same measures were less than 50 nM and greater than 300 µM.
